Measured values published in ChEMBL document CHEMBL1125454, “Synthesis and evaluation of a new series of mechanism-based aromatase inhibitors” (J Med Chem, 1992).
“And” between values parts separate entries of the source, which are not always exact repeats. Identical values can stand only once.

What was measured:
Aromatase [1] = target: T1, Aromatase (Homo sapiens, UniProt P11511); assay: Percent cytochrome P450 19A1 activity remaining after 5 minute pretreatment with 1 uM androstenedione
T1 sequence (P11511 whole entry): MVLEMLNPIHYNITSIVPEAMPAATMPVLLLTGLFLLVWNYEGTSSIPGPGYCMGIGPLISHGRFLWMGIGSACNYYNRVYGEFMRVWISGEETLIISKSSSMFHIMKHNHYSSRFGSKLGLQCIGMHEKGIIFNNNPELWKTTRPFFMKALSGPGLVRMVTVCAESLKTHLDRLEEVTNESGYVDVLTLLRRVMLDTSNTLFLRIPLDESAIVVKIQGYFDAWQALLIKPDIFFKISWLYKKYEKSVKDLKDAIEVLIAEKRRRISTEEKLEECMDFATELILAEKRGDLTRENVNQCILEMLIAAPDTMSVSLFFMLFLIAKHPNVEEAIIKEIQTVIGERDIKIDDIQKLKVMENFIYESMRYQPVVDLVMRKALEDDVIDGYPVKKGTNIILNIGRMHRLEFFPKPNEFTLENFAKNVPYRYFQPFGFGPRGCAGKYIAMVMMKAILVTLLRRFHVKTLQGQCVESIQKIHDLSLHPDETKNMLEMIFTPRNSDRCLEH

[2] = kinact was determined.; format: ADME
Aromatase [3] = target: T1, Aromatase; assay: Percent cytochrome P450 19A1 activity remaining after 10 minute pretreatment with 0.5 mM beta-mercaptoethanol
Aromatase [4] = target: T1, Aromatase; assay: Percent cytochrome P450 19A1 activity remaining after 5 minute pretreatment with 10 mM beta-mercaptoethanol
Aromatase [5] = target: T1, Aromatase; assay: Percent cytochrome P450 19A1 activity remaining after 10 minute pretreatment with 1 uM androstenedione
Aromatase [6] = target: T1, Aromatase; assay: Inhibition constant for human placental cytochrome P450 19A1
Aromatase [7] = target: T1, Aromatase; assay: Percent cytochrome P450 19A1 activity remaining after 5 minute pretreatment with 0.5 uM androstenedione
Aromatase [8] = target: T1, Aromatase; assay: Percent cytochrome P450 19A1 activity remaining after 10 minute pretreatment with 0.5 uM androstenedione
Aromatase [9] = target: T1, Aromatase; assay: Percent cytochrome P450 19A1 activity remaining after pretreatment with 0.5 uM androstenedione (t=0 control)
Aromatase [10] = target: T1, Aromatase; assay: Percent cytochrome P450 19A1 activity remaining after pretreatment with 1 uM androstenedione (t=0 control)
Aromatase [11] = target: T1, Aromatase; assay: Inhibition of cytochrome P450 19A1
[12] = Half-life period of the compound; NTD = Not time dependent; format: ADME
[13] = kinact was determined; NTD = Not time dependent; format: ADME
Aromatase [14] = target: T1, Aromatase; assay: Inhibition constant for human placental Cytochrome P450 19A1
Aromatase [15] = target: T1, Aromatase; assay: Inhibition of Cytochrome P450 19A1

Compound | K inact [2] | Ki (Aromatase [6]) [nM] | IC50 (Aromatase [11]) [nM] | other results
C[C@]12CCC(=O)C(SCCl)=C1CCC1C2CC[C@]2(C)C(=O)CCC12 (stereo partly specified) | 3.8 10e-3 s-1 | 30 | 940 | Activity (Aromatase [1]): 32% and 36.8%; Activity (Aromatase [3]): 59%; Activity (Aromatase [4]): 5%; Activity (Aromatase [5]): 10.2%; Activity (Aromatase [7]): 70%; Activity (Aromatase [8]): 36.5% and 46%; Activity (Aromatase [9]): 49%; Activity (Aromatase [10]): 9.8%
C[C@]12CCC(=O)C(O)=C1CC[C@@H]1[C@@H]2CC[C@]2(C)C(=O)CC[C@@H]12 [FORMESTANE] | 2.3 10e-3 s-1 | 27 | 370 | 
C[C@]12CCC(=O)C(SCCl)=C1CCC1C2=CC[C@]2(C)C(=O)CCC12 (stereo partly specified) | 4.8 10e-3 s-1 | 27 | 860 | 
C[C@]12CCC(=O)C(S)=C1CCC1C2=CC[C@]2(C)C(=O)CCC12 (stereo partly specified) | 3.9 10e-3 s-1 | 72 | 3800 | 
CSCSC1=C2CCC3C(CC[C@]4(C)C(=O)CCC34)[C@@]2(C)CCC1=O (stereo partly specified) |  |  | 1200 | T1/2 [12]: Not time-dependent; K inact [13]: Not time-dependent
C[C@]12CCC(=O)C(SCF)=C1CCC1C2CC[C@]2(C)C(=O)CCC12 (stereo partly specified) | 3.1 10e-3 s-1 |  |  | Ki (Aromatase [14]): 30 nM; IC50 (Aromatase [15]): 800 nM
COCOC1=C2CCC3C(CC[C@]4(C)C(=O)CCC34)[C@@]2(C)CCC1=O (stereo partly specified) | Not time-dependent |  | 4400 | 
COCSC1=C2CCC3C(CC[C@]4(C)C(=O)CCC34)[C@@]2(C)CCC1=O (stereo partly specified) | Not time-dependent |  | 10000 | 
C[C@]12CCC(=O)C(O)=C1CCC1C2=CC[C@]2(C)C(=O)CCC12 (stereo partly specified) |  |  | 350 | 
C[C@]12CCC(=O)C(SCC#N)=C1CC[C@@H]1[C@@H]2CC[C@]2(C)C(=O)CC[C@@H]12 | 1.2 10e-3 s-1 |  |  | Ki (Aromatase [14]): 169 nM; IC50 (Aromatase [15]): 3700 nM
C[C@]12CCC(=O)C(S)=C1CCC1C2CC[C@]2(C)C(=O)CCC12 (stereo partly specified) |  |  |  | IC50 (Aromatase [15]): 3500 nM
C[C@]12CCC(=O)C(SC(F)F)=C1CC[C@@H]1[C@@H]2CC[C@]2(C)C(=O)CC[C@@H]12 |  |  | 2700 | T1/2 [12]: Not time-dependent; K inact [13]: Not time-dependent
CSC1=C2CCC3C(CC[C@]4(C)C(=O)CCC34)[C@@]2(C)CCC1=O (stereo partly specified) |  |  | 4400 | T1/2 [12]: Not time-dependent; K inact [13]: Not time-dependent
